Test results published in patent US8003783B2, “17B-hydroxysteroid dehydrogenase inhibitors” (Sterix Limited, priority 2004, dated 2011).
Values joined by “and” are separate entries in the source; they are usually repeats but may differ in a detail not shown here. Identical values can stand only once. Like-named read-outs stand apart in the source and are kept apart here.

Legend:
17β-HSD1 = target: T1, 17β-HSD1 (Homo sapiens, UniProt P14061); test: 17β-HSD Type I activity in T-47D cells (E1→E2); format: cell-based; details: for inhibition at 10 µM: T47D, read-out: % inhibition of 17β-HSD1 @ 10 μM
T1 construct: was measured in intact cell monolayers of T47D and MDA-MB-231 breast cancer cells respectively; endogenous in cells; host or cells: T-47D human breast cancer cells
T1 sequence (P14061 1-328): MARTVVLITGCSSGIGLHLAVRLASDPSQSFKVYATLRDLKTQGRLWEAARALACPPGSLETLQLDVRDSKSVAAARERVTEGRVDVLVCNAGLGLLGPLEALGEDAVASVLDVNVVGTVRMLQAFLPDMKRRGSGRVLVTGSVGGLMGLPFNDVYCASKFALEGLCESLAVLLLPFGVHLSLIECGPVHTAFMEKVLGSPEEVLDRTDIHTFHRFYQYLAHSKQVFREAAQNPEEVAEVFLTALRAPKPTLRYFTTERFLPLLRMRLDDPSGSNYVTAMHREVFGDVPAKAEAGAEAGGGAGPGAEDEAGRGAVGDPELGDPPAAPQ

17β-HSD2 = target: T2, 17β-HSD2 (Homo sapiens, UniProt P37059); test: 17β-HSD Type II activity in MDA-MB-231 cells (E2→E1); format: cell-based; details: MDA-MB-231 cells, E2→E1; for inhibition at 10 µM: read-out: % inhibition of 17β-HSD2 @ 10 μM
T2 construct: was measured in intact cell monolayers of T47D and MDA-MB-231 breast cancer cells respectively; endogenous in cells; host or cells: MDA-MB-231 human breast cancer cells
T2 sequence (P37059 1-387): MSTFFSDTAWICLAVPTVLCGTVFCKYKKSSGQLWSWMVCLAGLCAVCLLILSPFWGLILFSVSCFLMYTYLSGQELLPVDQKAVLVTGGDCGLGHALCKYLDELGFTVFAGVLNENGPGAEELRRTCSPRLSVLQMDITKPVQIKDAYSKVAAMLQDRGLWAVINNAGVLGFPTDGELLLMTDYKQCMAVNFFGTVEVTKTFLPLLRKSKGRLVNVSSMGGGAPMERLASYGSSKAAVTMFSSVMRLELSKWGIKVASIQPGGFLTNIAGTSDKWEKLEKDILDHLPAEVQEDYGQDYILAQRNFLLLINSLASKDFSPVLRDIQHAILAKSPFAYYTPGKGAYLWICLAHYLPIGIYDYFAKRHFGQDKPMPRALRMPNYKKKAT

[1] = T-47D cells, E1→E2, read-out: IC50 (17β-HSD1)

| Structure (SMILES) | inhibition at 10 µM (17β-HSD1; T-47D cells, E1→E2) | inhibition at 10 µM (17β-HSD2) | IC50 (17β-HSD2) | % inhibition of 17β-HSD1 @ 10 μM (17β-HSD1; T-47D cells, E1→E2) | IC50 (17β-HSD1; [1]) | IC50 (17β-HSD1) |
| --- | --- | --- | --- | --- | --- | --- |
| CN(C)c1ccc(/C=C2\CC3C4CCc5cc(O)ccc5C4CC[C@]3(C)[C@H]2O)cc1 (stereo in doubt) [compound 511, 16-(4-Dimethylamino-benzylidene)-13-methyl-7,8,9,11,12,13,14,15,16,17-decahydro-6H-cyclopenta[a]phenanthrene-3,17-diol] | 72% | 81% | 5400 nM |  |  |  |
| C[C@]12CCC3c4ccc(O)cc4CCC3C1CC(Cc1cccnc1)[C@@H]2O (stereo in doubt) [compound 542, 13-Methyl-16-pyridin-3-ylmethyl-7,8,9,11,12,13,14,15,16,17-decahydro-6H-cyclopenta[a]phenanthrene-3,17-diol] | 87% | 11% |  |  |  |  |
| C[C@]12CCC3c4ccc(O)cc4CCC3C1CC(C#N)C2=O (stereo partly drawn) [compound 207] | 83% | 17% |  | 71% | 10000 nM |  |
| COc1cc2c(cc1O)CCC1C2CC[C@]2(C)C(=O)C(C#N)CC12 (stereo partly drawn) [compound 208] | 35% | 4% |  | 31% |  |  |
| C[C@]12CCC3c4ccc(OS(N)(=O)=O)cc4CCC3C1CC(C#N)C2=O (stereo partly drawn) [compound 209] | 71% | 18% |  | 73% | 10000 nM |  |
| COc1cc2c(cc1OS(N)(=O)=O)CCC1C2CC[C@]2(C)C(=O)C(C#N)CC12 (stereo partly drawn) [compound 210] | 95% | 8% |  |  | 2100 nM |  |
| C[C@]12CCC3c4ccc(O)cc4CCC3C1C/C(=C\c1ccccc1)[C@@H]2O (stereo partly drawn) [compound 313] | 26% | 5% |  |  |  |  |
| C[C@]12CCC3c4ccc(OS(N)(=O)=O)cc4CCC3C1C/C(=C\c1ccccc1)C2=O (stereo partly drawn) [compound 314] | -1% | 1% |  |  |  |  |
| C[C@]12CCC3c4ccc(OS(N)(=O)=O)cc4CCC3C1C/C(=C\c1ccccc1)[C@@H]2O (stereo partly drawn) [compound 315] | 4% | 1% |  |  |  |  |
| C[C@]12CCC3c4ccc(O)cc4CCC3C1C/C(=C\c1ccccn1)C2=O (stereo partly drawn) [compound 319] | 23% | 16% |  |  |  |  |
| C[C@]12CCC3c4ccc(O)cc4CCC3C1C/C(=C\c1cccnc1)C2=O (stereo partly drawn) [compound 320] | 44% | 10% |  |  |  |  |
| C[C@]12CCC3c4ccc(O)cc4CCC3C1C/C(=C\c1ccncc1)C2=O (stereo partly drawn) [compound 321] | 34% | 25% |  |  |  |  |
| C[C@]12CCC3c4ccc(O)cc4CCC3C1C/C(=C\c1ccccn1)[C@@H]2O (stereo partly drawn) [compound 322] | 55% | 17% |  |  |  |  |
| C[C@]12CCC3c4ccc(O)cc4CCC3C1C/C(=C\c1cccnc1)[C@@H]2O (stereo partly drawn) [compound 323] | 52% | 43% |  |  |  |  |
| C[C@]12CCC3c4ccc(O)cc4CCC3C1C/C(=C\c1ccncc1)[C@@H]2O (stereo partly drawn) [compound 324] | 81% | 3% |  | 72% |  | 4100 nM |
| C[C@]12CCC3c4ccc(O)cc4CCC3C1C/C(=N/O)C2=O (stereo partly drawn) [compound 327] | 96% | 5% |  | 94% | 1100 nM |  |
| COc1cc(/C=C2\CC3C4CCc5cc(O)ccc5C4CC[C@]3(C)C2=O)cc(OC)c1OC (stereo partly drawn) [compound 328] | 24% | -12% |  |  |  |  |
| COc1cc(/C=C2\CC3C4CCc5cc(O)ccc5C4CC[C@]3(C)[C@H]2O)cc(OC)c1OC (stereo partly drawn) [compound 329] |  | 3% |  | 63% and 33% |  |  |
| CCOC(=O)/C(O)=C1\CC2C3CCc4cc(O)ccc4C3CC[C@]2(C)C1=O (stereo partly drawn) [compound 330] | 72% | 7% |  | 77% |  |  |

| Structure (SMILES) | inhibition at 10 µM (17β-HSD1; T-47D cells, E1→E2) | inhibition at 10 µM (17β-HSD2) | IC50 (17β-HSD2) | % inhibition of 17β-HSD1 @ 10 μM (17β-HSD1; T-47D cells, E1→E2) | IC50 (17β-HSD1; [1]) | IC50 (17β-HSD1) |
| --- | --- | --- | --- | --- | --- | --- |
| C[C@]12CCC3c4ccc(OS(N)(=O)=O)cc4CCC3C1C/C(=N/O)C2=O (stereo partly drawn) [compound 337] | 47% | 8% |  |  |  |  |
| C[C@]12CCC3c4ccc(O)cc4CCC3C1CC(=N/O)/C2=N\O (stereo partly drawn) [compound 338] | 55% | -2% |  |  |  |  |
| C[C@]12CCC3c4ccc(O)cc4C(=O)CC3C1CCC2=O (stereo partly drawn) [compound 416] | 98% | 8% |  |  | 340 nM |  |
| C[C@]12CCC3c4ccc(OS(N)(=O)=O)cc4CCC3C1C/C(=C\c1ccncc1)C2=O (stereo partly drawn) [compound 452] | 28% | 11% |  |  |  |  |
| C[C@]12CCC3c4ccc(OS(N)(=O)=O)cc4CCC3C1C/C(=C\c1cccnc1)C2=O (stereo partly drawn) [compound 453] | 22% | 10% |  |  |  |  |
| C[C@]12CCC3c4ccc(O)cc4/C(=N\O)CC3C1CC/C2=N\O (stereo partly drawn) [compound 454] |  | 27% |  |  | 1900 nM |  |
| C[C@]12CCC3c4ccc(O)cc4CCC3C1C/C(=C\c1ccco1)C2=O (stereo partly drawn) [compound 474] | 26% | 17% |  |  |  |  |
| C[C@]12CCC3c4ccc(O)cc4CCC3C1C/C(=C\c1cccs1)C2=O (stereo partly drawn) [compound 475] | 67% | 14% |  |  |  |  |
| CN(C)c1ccc(/C=C2\CC3C4CCc5cc(O)ccc5C4CC[C@]3(C)C2=O)cc1 (stereo partly drawn) [compound 477, 16-(4-Dimethylamino-benzylidene)-3-hydroxy-13-methyl-6,7,8,9,11,12,13,14,15,16-decahydro-cyclopenta[a]phenanthron-17-one] | 72% | 13% |  |  |  |  |
| C[C@]12CCC3c4ccc(O)cc4CCC3C1C/C(=C\c1ccc(C#N)cc1)C2=O (stereo partly drawn) [compound 478] | 39% | 18% |  |  |  |  |
| C[C@]12CCC3c4ccc(O)cc4CCC3C1C/C(=C/O)C2=O (stereo partly drawn) [compound 486] | 97% | 15% |  |  | 110 nM |  |
| C[C@]12CCC3c4ccc(O)cc4CCC3C1C/C(=C\c1cccs1)[C@@H]2O (stereo partly drawn) [compound 507] | 41% | 25% |  |  |  |  |
| C[C@]12CCC3c4ccc(O)cc4CCC3C1C/C(=C\c1ccc(C#N)cc1)[C@@H]2O (stereo partly drawn) [compound 510] | 57% | 31% |  |  |  |  |
| CO/N=C1\CC2C(CC[C@]3(C)/C(=N/OC)CCC23)c2ccc(O)cc21 (stereo partly drawn) [compound 515] | 15% | 31% |  |  |  |  |
| C[C@]12CCC3c4ccc(O)cc4CCC3C1CC(Cc1ccncc1)[C@@H]2O (stereo partly drawn) [compound 543, 13-Methyl-16-pyridin-4-ylmethyl-7,8,9,11,12,13,14,15,16,17-decahydro-6H-cyclopenta[a]phenanthrene-3,17-diol] | 84% | 37% |  |  |  |  |
| C[C@]12CCC3c4ccc(O)cc4CCC3C1CC(C#N)[C@@H]2O (stereo partly drawn) [compound 561] | 56% | 4% |  |  |  |  |
| C[C@]12CCC3c4ccc(O)cc4CCC3C1CC(Cc1ccccn1)[C@@H]2O (stereo partly drawn) [compound 567, 13-Methyl-16-pyridin-2-ylmethyl-7,8,9,11,12,13,14,15,16,17-decahydro-6H-cyclopenta[□]phenanthrene-3-17-diol] | 88% | 11% |  |  |  |  |
| COC(=O)C1CC2C3CCc4cc(O)ccc4C3CC[C@]2(C)C1=O (stereo partly drawn) [compound 568] | 69% | 9% |  |  |  |  |
| CC(C)/C=C1\CC2C3CCc4cc(O)ccc4C3CC[C@]2(C)C1=O (stereo partly drawn) [compound 571] | 71% | 18% |  |  |  |  |
